# Source: patent US20260049084A1, “ENPP1 MODULATORS AND PRODUCTS AND USES THEREOF” (Gossamer Bio Services, Inc., priority 2022, published 2026)
# Assays:
# [1] = target: Recombinant human ENPP3 protein (Homo sapiens (Human), UniProt O14638); assay: ENPP3 cGAMP Biochemical Assay; conditions: 70.5 nM ENPP3, 120 μM 2′3′-cGAMP substrate, TR-FRET
# Experimental: ENPP3 cGAMP Biochemical Assay
# Compounds were added to 384 well Proxiplate (PerkinElmer, Waltham MA) at 100 nl/well from DMSO stocks using Echo (Labcyte, San Jose CA). Recombinant human ENPP3 protein (Acro Biosystems, Newwark DE) was prepared in assay buffer (50 mM Tris pH7.5, 1 mM TCEP pH7.0, 2 mM MgCl2, 2 mM CaCl2), 2 mM ZnCl2 and 0.005% Tween20) and added at 2 μl/well. The plate was sealed, centrifuged at 1000 rpm for 1 minute and incubated at room temperature for 30 minutes before 2 μl substrate 2′3′-cGAMP (R&D Systems, Minneapolis MN) in assay buffer was added to each well to a final concentration of 70.5 nM ENPP3 and 120 μM 2′3′-cGAMP. The plate was sealed and centrifuged at 1000 rpm for 1 minute again. After incubation at 25° C. for 60 minutes, Terbium labelled AMP/GMP antibody and AMP/GMP HiLyte647 Tracer (BellBrook Labs, Fitchburg WI) in detection buffer (50 mM Tris pH7.5, 20 mM EDTA and 0.1% Prionex) were added to the reaction mixture to a final concentration of 475 nM and 3 nM respectively. The assay plate was incubated at room temperature for 120 minutes. TR-FRET signal was detected using Envision (PerkinElmer, Waltham MA).
# [2] = target: Recombinant human ENPP1 protein (Homo sapiens (Human), UniProt P22413); assay: ENPP1 cGAMP Biochemical Assay; conditions: 0.5 nM ENPP1, 1000 nM 2′3′-cGAMP substrate, TR-FRET
# Experimental: ENPP1 cGAMP Biochemical Assay
# Compounds were added to 384 well Proxiplate (PerkinElmer, Waltham MA) at 100 nl/well from DMSO stocks using Echo (Labcyte, San Jose CA). Recombinant human ENPP1 protein (R&D Systems, Minneapolis MN) was prepared in assay buffer (50 mM Tris pH7.5, 1 mM TCEP pH7.0, 2 mM MgCl2 and 0.005% Tween20) and added at 10 μl/well. The plate was sealed, centrifuged at 1000 rpm for 1 minute and incubated at room temperature for 30 minutes before 5 μl substrate 2′3′-cGAMP (R&D Systems, Minneapolis MN) in assay buffer was added to each well to a final concentration of 0.5 nM ENPP1 and 1000 nM 2′3′-cGAMP. The plate was sealed and centrifuged at 1000 rpm for 1 minute again. After incubation at 25° C. for 60 minutes, Terbium labelled AMP/GMP antibody and AMP/GMP HiLyte647 Tracer (BellBrook Labs, Fitchburg WI) in detection buffer (50 mM Tris pH7.5, 20 mM EDTA and 0.1% Prionex) were added to the reaction mixture to a final concentration of 2 nM (5 μl/well). The assay plate was incubated at room temperature for 120 minutes. TR-FRET signal was detected using Envision (PerkinElmer, Waltham MA).
# Chain of Recombinant human ENPP3 protein (O14638 whole entry): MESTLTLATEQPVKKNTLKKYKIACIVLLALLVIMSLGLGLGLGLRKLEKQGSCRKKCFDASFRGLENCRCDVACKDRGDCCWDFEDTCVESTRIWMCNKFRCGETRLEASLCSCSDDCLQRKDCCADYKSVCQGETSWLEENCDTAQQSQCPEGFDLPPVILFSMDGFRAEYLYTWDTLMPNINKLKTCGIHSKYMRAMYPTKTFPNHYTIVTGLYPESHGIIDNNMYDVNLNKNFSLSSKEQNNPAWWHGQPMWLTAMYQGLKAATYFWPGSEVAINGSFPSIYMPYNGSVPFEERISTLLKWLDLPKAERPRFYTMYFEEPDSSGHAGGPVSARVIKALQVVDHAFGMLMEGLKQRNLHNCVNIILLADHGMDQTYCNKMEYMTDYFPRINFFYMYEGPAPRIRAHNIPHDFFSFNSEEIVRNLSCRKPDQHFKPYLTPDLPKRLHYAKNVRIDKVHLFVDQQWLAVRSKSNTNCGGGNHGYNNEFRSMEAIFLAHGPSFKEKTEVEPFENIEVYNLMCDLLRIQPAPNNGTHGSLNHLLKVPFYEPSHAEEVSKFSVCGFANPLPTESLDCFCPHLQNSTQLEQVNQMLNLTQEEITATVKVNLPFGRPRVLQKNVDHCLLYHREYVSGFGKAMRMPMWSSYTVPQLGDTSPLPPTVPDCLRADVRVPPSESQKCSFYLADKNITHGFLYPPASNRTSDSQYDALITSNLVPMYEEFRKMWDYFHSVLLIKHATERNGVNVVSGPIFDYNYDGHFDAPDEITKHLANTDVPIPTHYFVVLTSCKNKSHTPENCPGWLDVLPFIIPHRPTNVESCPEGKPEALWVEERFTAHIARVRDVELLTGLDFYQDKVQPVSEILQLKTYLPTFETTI
# Chain of Recombinant human ENPP1 protein (P22413 whole entry): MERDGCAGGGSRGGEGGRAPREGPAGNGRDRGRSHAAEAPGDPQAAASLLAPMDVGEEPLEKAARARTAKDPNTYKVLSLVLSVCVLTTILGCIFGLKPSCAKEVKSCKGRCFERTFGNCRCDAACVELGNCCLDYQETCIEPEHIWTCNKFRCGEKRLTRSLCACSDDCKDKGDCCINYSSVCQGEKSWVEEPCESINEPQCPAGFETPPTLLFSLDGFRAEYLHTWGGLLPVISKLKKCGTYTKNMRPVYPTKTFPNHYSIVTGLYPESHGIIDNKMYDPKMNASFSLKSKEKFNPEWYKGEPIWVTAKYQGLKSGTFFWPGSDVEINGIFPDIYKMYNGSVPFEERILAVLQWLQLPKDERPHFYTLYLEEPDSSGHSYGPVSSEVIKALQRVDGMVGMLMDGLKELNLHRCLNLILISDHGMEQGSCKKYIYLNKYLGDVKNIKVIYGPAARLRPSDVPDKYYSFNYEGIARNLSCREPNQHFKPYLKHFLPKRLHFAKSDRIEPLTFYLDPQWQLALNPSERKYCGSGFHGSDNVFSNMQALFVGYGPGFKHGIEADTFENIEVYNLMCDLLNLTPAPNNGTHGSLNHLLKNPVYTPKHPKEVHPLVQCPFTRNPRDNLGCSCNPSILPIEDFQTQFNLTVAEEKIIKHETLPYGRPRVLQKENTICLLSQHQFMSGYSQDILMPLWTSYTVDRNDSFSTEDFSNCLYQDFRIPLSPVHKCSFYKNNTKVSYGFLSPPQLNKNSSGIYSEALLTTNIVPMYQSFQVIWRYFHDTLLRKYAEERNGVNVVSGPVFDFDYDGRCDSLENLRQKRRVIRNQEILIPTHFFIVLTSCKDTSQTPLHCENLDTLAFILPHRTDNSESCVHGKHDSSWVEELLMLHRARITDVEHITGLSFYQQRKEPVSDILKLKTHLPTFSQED
Compound,IC50 [1] [nM],IC50 [2] [nM]
"C#CCn1nc(Cl)c2c(N(C)Cc3ccc([S@@](C)(=N)=O)cc3)ccnc21 [Compound 9C, (S)-(4-(((3-chloro-1-(prop-2-yn-1-yl)-1H-pyrazolo[3,4-b]pyridin-4-yl)(methyl)amino)methyl)phenyl)(imino)(methyl)-λ^6-sulfanone]",≥ 1000,< 10
"CCn1ncc2c(NCc3ccc(S(C)(=N)=O)cc3)ccnc21 (stereo not drawn) [Compound 9E, (4-(((1-ethyl-1H-pyrazolo[3,4-b]pyridin-4-yl)amino)methyl)phenyl)(imino)(methyl)-λ6-sulfanone]",≥ 1000,≥ 1000
"C[S@](=N)(=O)c1ccc(CNc2ccnc3c2c(Cl)nn3CC#N)cc1 [Compound 9G, (S)-2-(3-chloro-4-((4-(S-methylsulfonimidoyl)benzyl)amino)-1H-pyrazolo[3,4-b]pyridin-1-yl) acetonitrile]",≥ 1000,100 to 1000
"CCn1nc(Cl)c2c(NCc3ccc([S@@](C)(=N)=O)cc3)ccnc21 [Compound 9M, (S)-(4-(((3-chloro-1-ethyl-1H-pyrazolo[3,4-b]pyridin-4-yl)amino)methyl)phenyl)(imino) (methyl)-λ^6-sulfanone]",≥ 1000,10 to 100
"CCn1nc(Cl)c2c(NCc3ccc([S@](=N)(=O)CCOC)cc3)ccnc21 [Compound 9N, (R)-(4-(((3-chloro-1-ethyl-1H-pyrazolo [3,4-b]pyridine-4-yl)amino)methyl)phenyl)(imino)(2-methoxyethyl)-λ^6-sulfanone]",≥ 1000,< 10
"C#CCn1nc(Cl)c2c(NCc3ccc(S(C)(=O)=NC)cc3)ccnc21 (stereo not drawn) [Compound 10A, (4-(((3-chloro-1-(prop-2-yn-1-yl)-1H-pyrazolo[3,4-b]pyridin-4-yl)amino)methyl)phenyl)(methyl)(methylimino)-λ6-sulfanone]",≥ 1000,100 to 1000
"CN=S(C)(=O)c1ccc(CNc2ccnc3c2c(Cl)nn3CC#N)cc1 (stereo not drawn) [Compound 10D, 2-(3-chloro-4-((4-(N,S-dimethylsulfonimidoyl)benzyl)amino)-1H-pyrazolo[3,4-b]pyridin-1-yl)acetonitrile]",≥ 1000,100 to 1000
"CN[S@@](=N)(=O)c1ccc(CNc2ccnc3c2c(Cl)nn3CC#N)cc1 [Compound 10F, (R)-4-(((3-chloro-1-(cyanomethyl)-1H-pyrazolo[3,4-b]pyridin-4-yl)amino)methyl)-N-methylbenzenesulfonimidamide]",≥ 1000,10 to 100
"N#CCn1nc(Cl)c2c(NCc3ccc(S(=N)(N)=O)cc3)ccnc21 (stereo not drawn) [Compound 11B, 4-(((3-chloro-1-(cyanomethyl)-1H-pyrazolo[3,4-b]pyridin-4-yl)amino)methyl)benzenesulfonimidamide]",100 to 1000,< 10
"CCn1nc(Cl)c2c(NCc3ccc(S(=N)(N)=O)cc3)ccnc21 (stereo not drawn) [Compound 11C, 4-(((3-chloro-1-ethyl-1H-pyrazolo[3,4-b]pyridin-4-yl)amino)methyl)benzenesulfonimidamide]",≥ 1000,< 10
"CN=S(N)(=O)c1ccc(CNc2ccnc3c2c(Cl)nn3CC#N)cc1 (stereo not drawn) [Compound 12B, 4-(((3-chloro-1-(cyanomethyl)-1H-pyrazolo[3,4-b]pyridin-4-yl)amino)methyl)-N′-methylbenzenesulfonimidamide]",100 to 1000,< 10

# Next, values leading:
IC50 [1] [nM],IC50 [2] [nM],Compound
100 to 1000,< 10,"CS(=N)(=O)c1ccc(COc2ccnc3c2c(Cl)nn3CC#N)cc1 (stereo not drawn) [Compound 8A, 2-(3-chloro-4-((4-(S-methylsulfonimidoyl)benzyl)oxy)-1H-pyrazolo[3,4-b]pyridin-1-yl) acetonitrile]"
10 to 100,< 10,"C#CCn1nc(Cl)c2c(N(C)Cc3ccc(S(C)(=N)=O)cc3)ccnc21 (stereo not drawn) [Compound 9A, (4-(((3-chloro-1-(prop-2-yn-1-yl)-1H-pyrazolo [3,4-b]pyridin-4-yl)(methyl)amino)methyl)phenyl)(imino)(methyl)-λ^6-sulfanone]"
10 to 100,< 10,"C#CCn1nc(Cl)c2c(N(C)Cc3ccc([S@](C)(=N)=O)cc3)ccnc21 [Compound 9B, (R)-(4-(((3-chloro-1-(prop-2-yn-1-yl)-1H-pyrazolo[3,4-b]pyridin-4-yl)(methyl)amino)methyl)phenyl)(imino)(methyl)-λ^6-sulfanone]"
10 to 100,< 10,"C#CCn1nc(Cl)c2c(NCc3ccc(S(C)(=N)=O)cc3)ccnc21 (stereo not drawn) [Compound 9D, (4-(((3-chloro-1-(prop-2-yn-1-yl)-1H-pyrazolo[3,4-b]pyridin-4-yl)amino)methyl)phenyl)(imino)(methyl)-λ6-sulfanone]"
10 to 100,< 10,"CS(=N)(=O)c1ccc(CNc2ccnc3c2c(Cl)nn3CC#N)cc1 (stereo not drawn) [Compound 9F, 2-(3-chloro-4-((4-(S-methylsulfonimidoyl)benzyl)amino)-1H-pyrazolo[3,4-b]pyridin-1-yl)acetonitrile]"
10 to 100,< 10,"C[S@@](=N)(=O)c1ccc(CNc2ccnc3c2c(Cl)nn3CC#N)cc1 [Compound 9H, (R)-2-(3-chloro-4-((4-(S-methylsulfonimidoyl)benzyl)amino)-1H-pyrazolo[3,4-b]pyridin-1-yl)acetonitrile]"
100 to 1000,< 10,"CCn1nc(Cl)c2c(NCc3ccc(S(=N)(=O)CCOC)cc3)ccnc21 (stereo not drawn) [Compound 9I, (4-(((3-chloro-1-ethyl-1H-pyrazolo[3,4-b]pyridin-4-yl)amino)methyl)phenyl)(imino)(2-methoxyethyl)-λ6-sulfanone]"
100 to 1000,< 10,"CCn1nc(Cl)c2c(NCc3ccc(S(=N)(=O)CC4CC4)cc3)ccnc21 (stereo not drawn) [Compound 9J, (4-(((3-chloro-1-ethyl-1H-pyrazolo[3,4-b]pyridin-4-yl)amino)methyl)phenyl) (cyclopropylmethyl)(imino)-λ^6-sulfanone]"
100 to 1000,< 10,"CCn1nc(Cl)c2c(NCc3ccc(S(=N)(=O)CC)cc3)ccnc21 (stereo not drawn) [Compound 9K, (4-(((3-chloro-1-ethyl-1H-pyrazolo[3,4-b]pyridine-4-yl)amino)methyl)phenyl)(ethyl) (imino)-λ^6-sulfanone]"
100 to 1000,< 10,"CCn1nc(Cl)c2c(NCc3ccc([S@](C)(=N)=O)cc3)ccnc21 [Compound 9L, (R)-(4-(((3-chloro-1-ethyl-1H-pyrazolo[3,4-b]pyridin-4-yl)amino)methyl)phenyl)(imino) (methyl)-λ^6-sulfanone]"
100 to 1000,< 10,"CN[S@](=N)(=O)c1ccc(CNc2ccnc3c2c(Cl)nn3CC#N)cc1 [Compound 10E, (S)-4-(((3-chloro-1-(cyanomethyl)-1H-pyrazolo[3,4-b]pyridin-4-yl)amino)methyl)-N-methylbenzenesulfonimidamide]"
10 to 100,< 10,"C#CCn1nc(Cl)c2c(NCc3ccc(S(=N)(N)=O)cc3)ccnc21 (stereo not drawn) [Compound 11A, 4-(((3-chloro-1-(prop-2-yn-1-yl)-1H-pyrazolo[3,4-b]pyridin-4-yl)amino)methyl)benzenesulfonimidamide]"
10 to 100,< 10,"C#CCn1nc(Cl)c2c(NCc3ccc(S(N)(=O)=NC)cc3)ccnc21 (stereo not drawn) [Compound 12A, 4-(((3-chloro-1-(prop-2-yn-1-yl)-1H-pyrazolo[3,4-b]pyridin-4-yl)amino)methyl)-N′-methylbenzenesulfonimidamide]"
